# Test results reported in patent US8044198B2, “Sirtuin modulating compounds” (Sirtris Pharmaceuticals, Inc., priority 2005, dated 2011).
# Like-named read-outs stand apart in the source and are kept apart here.
# Biological target: T1, SIRT1 (Homo sapiens, UniProt Q96EB6)
# T1 sequence (Q96EB6 1-747): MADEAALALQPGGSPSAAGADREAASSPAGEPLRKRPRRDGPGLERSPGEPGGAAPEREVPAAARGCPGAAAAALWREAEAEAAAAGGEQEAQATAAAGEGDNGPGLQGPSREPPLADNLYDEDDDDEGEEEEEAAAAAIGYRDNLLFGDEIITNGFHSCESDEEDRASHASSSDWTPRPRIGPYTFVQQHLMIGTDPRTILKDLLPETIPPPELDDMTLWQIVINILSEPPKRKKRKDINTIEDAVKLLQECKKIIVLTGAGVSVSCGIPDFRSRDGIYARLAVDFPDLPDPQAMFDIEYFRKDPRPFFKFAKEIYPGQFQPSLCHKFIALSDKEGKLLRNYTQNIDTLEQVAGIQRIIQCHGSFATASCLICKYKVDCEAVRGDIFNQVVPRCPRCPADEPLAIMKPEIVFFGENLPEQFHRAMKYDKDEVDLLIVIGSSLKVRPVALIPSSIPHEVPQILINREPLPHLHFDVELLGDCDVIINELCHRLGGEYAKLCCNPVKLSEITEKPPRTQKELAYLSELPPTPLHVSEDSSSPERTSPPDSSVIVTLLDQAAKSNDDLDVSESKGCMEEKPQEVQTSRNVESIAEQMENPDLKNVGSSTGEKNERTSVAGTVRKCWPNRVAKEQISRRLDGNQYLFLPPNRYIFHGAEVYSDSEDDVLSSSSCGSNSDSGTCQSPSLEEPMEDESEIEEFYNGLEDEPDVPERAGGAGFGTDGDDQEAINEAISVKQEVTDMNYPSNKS
# Assay: SIRT1 mass spectrometry (MS) based deacetylation assay; for FOLD ACT. MS: test concentration or dose not given here
# Type: biochemical
# [1] = SIRT1 activation, mass spectrometry assay, read-out: ED50 MS ASSAY
# [2] = fold activation of SIRT1 as determined by MS
# [3] = Sirt1 activators, fold activation as determined by MS
# [4] = Sirt1 activators, mass spectrometry assay, read-out: ED50 MS ASSAY
# [5] = fold activation of SIRT1, mass spectrometry assay
# [6] = SIRT1 fold activation as determined by MS
EC50 [1] [µM],FOLD ACT. MS [5],Structure (SMILES),also measured
< 5,–,COc1ccc(C(=O)Nc2ccccc2-c2cn3ccsc3n2)cc1OC [Compound 203],FOLD ACT. MS [2]: B (B (Fold Activation <250%))
–,–,O=C(Nc1ccccc1-c1cn2c(CN3CCOCC3)csc2n1)c1cnc2ccccc2n1 [Compound 617],FOLD ACT. MS [3]: A (A (Fold activation >250%)); EC50 [4]: < 5 µM
–,–,COc1cc(NC(=S)Nc2cc(-c3nc4ncccc4o3)ccn2)cc(OC)c1 [Compound 661],FOLD ACT. MS [3]: B (B (Fold Activation <250%)); EC50 [4]: < 5 µM
–,–,COc1ccc(C(=O)Nc2ccc(-c3nc4ccncc4o3)s2)c(OC)c1 [Compound 561],FOLD ACT. MS [3]: B (B (Fold Activation <250%)); EC50 [4]: < 5 µM
< 5,–,COc1cc(OC)cc(C(=O)Nc2sccc2-c2nc3ccccc3s2)c1 [Compound 146],FOLD ACT. MS [2]: B (B (Fold Activation <250%))
< 5,A (A (Fold activation >250%)),COc1cc(C(=O)Nc2ccccc2-c2cn3cc(CN4CCNCC4)sc3n2)cc(OC)c1OC [Compound 271],–
< 5,B (B (Fold Activation <250%)),CN(C)c1ccc(C(=O)Nc2cccc(-c3nc4cnccc4s3)c2)cc1 [Compound 403],–
5 to 50,B (B (Fold Activation <250%)),O=C(Nc1cccc(-c2nc3ccncc3s2)c1)c1ccc(Oc2ccccc2)nc1 [Compound 306],–
5 to 50,–,COc1ccc(C(=O)Nc2ccccc2-c2cn3cc(CN(C)C)sc3n2)cc1OC [Compound 178],FOLD ACT. MS [2]: A (A (Fold activation >250%))
5 to 50,–,COc1ccc(C(=O)Nc2cccc(-c3cn4ccc(C)cc4n3)c2)cc1 [Compound 130],FOLD ACT. MS [2]: B (B (Fold Activation <250%))
5 to 50,–,COc1cc(C(=O)Nc2cc(-c3nc4ncccc4o3)ccn2)cc(OC)c1OC [Compound 75],FOLD ACT. MS [2]: B (B (Fold Activation <250%))
–,–,O=S(=O)(Nc1cc(-c2nc3ncccc3o2)ccn1)c1ccc(Cl)cc1 [Compound 652],"IC50 (Sirt1 Inhibitors, mass spectrometry assay): 51 to 100 µM"
5 to 50,B (B (Fold Activation <250%)),COc1cc(OC)cc(C(=O)Nc2cccc(-c3nc4ccncc4o3)c2)c1 [Compound 451],–
< 5,B (B (Fold Activation <250%)),COc1ccc(C(=O)Nc2cccc(-c3nc4cnccc4o3)c2)cc1OC [Compound 344],–
–,–,Cc1cnc(C(=O)Nc2ccccc2-c2cn3c(CN4CCNCC4)csc3n2)cn1 [Compound 644],FOLD ACT. MS [3]: A (A (Fold activation >250%)); EC50 [4]: 5 to 50 µM
< 5,–,O=C(Nc1ccccc1-c1cn2c(CN3CCNCC3)csc2n1)c1ccc(-c2ccccc2)cc1 [Compound 708],FOLD ACT. MS [6]: A (A (Fold activation >250%))
5 to 50,B (B (Fold Activation <250%)),COc1ccc(C(=O)Nc2ccc(-c3nc4cnccc4o3)s2)c(OC)c1 [Compound 422],–
5 to 50,B (B (Fold Activation <250%)),COc1ccc(C(=O)Nc2cccc(-c3nc4ccncc4o3)c2)cc1OC [Compound 454],–
–,–,COc1cc(C(=O)Nc2ccccc2-c2cn3cccnc3n2)ccc1CN1CCOCC1 [Compound 542],FOLD ACT. MS [3]: A (A (Fold activation >250%)); EC50 [4]: 5 to 50 µM
5 to 50,B (B (Fold Activation <250%)),COc1ccc(C(=O)Nc2cccc(-c3nc4cnccc4o3)c2)c(OC)c1OC [Compound 343],–
< 5,–,COc1ccc(C(=O)Nc2cccc(-c3nc4cccnc4s3)c2)c(OC)c1 [Compound 213],FOLD ACT. MS [2]: B (B (Fold Activation <250%))
< 5,–,COc1ccc(C(=O)Nc2sccc2-c2nc3ccccc3s2)cc1OC [Compound 145],FOLD ACT. MS [2]: B (B (Fold Activation <250%))
51 to 100,B (B (Fold Activation <250%)),COc1cc(C(=O)Nc2ccccc2-c2nc3ccccn3c2CN2CCNCC2)cc(OC)c1OC [Compound 362],–
< 5,B (B (Fold Activation <250%)),COc1ccc(C(=O)Nc2cccc(-c3nc4ccncc4o3)c2)c(OC)c1 [Compound 429],–
5 to 50,–,CN(C)c1ccc(C(=O)Nc2cccc(-c3nc4ncccc4o3)n2)cc1 [Compound 70],FOLD ACT. MS [2]: B (B (Fold Activation <250%))
< 5,–,COc1ccc(C(=O)Nc2ccccc2-c2nc3ccccc3[nH]2)cc1OC [Compound 142],FOLD ACT. MS [2]: A (A (Fold activation >250%))

EC50 [1] [µM],FOLD ACT. MS [5],Structure (SMILES),also measured
< 5,–,COc1cc(C(=O)Nc2ccccc2-c2cn3c(C)csc3n2)cc(OC)c1OC [Compound 739],FOLD ACT. MS [6]: A (A (Fold activation >250%))
–,–,COc1cc(C(=O)Nc2ccccc2-c2nc3cc(CN4CCNCC4)cnc3s2)cc(OC)c1OC [Compound 588],FOLD ACT. MS [3]: A (A (Fold activation >250%)); EC50 [4]: 5 to 50 µM
–,–,CN(C)c1cccc(C(=O)Nc2ccccc2-c2nc3cccnc3[nH]2)c1 [Compound 524],FOLD ACT. MS [3]: B (B (Fold Activation <250%)); EC50 [4]: < 5 µM
< 5,A (A (Fold activation >250%)),COc1ccc(C(=O)Nc2ccccc2-c2cn3ccccc3n2)cc1OC [Compound 266],–
5 to 50,–,COc1ccc(C(=O)Nc2cc(CN3CCNCC3)cc(-c3nc4ncccc4o3)c2)cc1OC [Compound 159],FOLD ACT. MS [2]: B (B (Fold Activation <250%))
–,–,CN(C)c1cccc(C(=O)Nc2cccc(-c3nc4ncccc4s3)c2)c1 [Compound 200],EC50: < 5 µM; FOLD ACT. MS [2]: B (B (Fold Activation <250%))
< 5,A (A (Fold activation >250%)),Cc1c(C(=O)Nc2ccccc2-c2cn3c(CN4CCNCC4)csc3n2)oc2ccccc12 [Compound 442],–
–,–,O=C(Nc1ccccc1-c1nc2cc(CN3CCNCC3)cnc2s1)c1ccc2c(c1)OCO2 [Compound 590],FOLD ACT. MS [3]: B (B (Fold Activation <250%)); EC50 [4]: 5 to 50 µM
–,–,CCn1ccc(C(=O)Nc2ccccc2-c2nc3ncccc3o2)n1 [Compound 581],FOLD ACT. MS [3]: B (B (Fold Activation <250%)); EC50 [4]: 5 to 50 µM
< 5,B (B (Fold Activation <250%)),COc1cc(C(=O)Nc2ccccc2-c2cn3ccccc3n2)cc(OC)c1OC [Compound 267],–
< 5,B (B (Fold Activation <250%)),Cn1nc(C(C)(C)C)cc1C(=O)Nc1cccc(-c2nc3ccncc3s2)c1 [Compound 246],–
< 5,–,O=C(Nc1ccccc1-c1cn2c(CN3CCSC3)csc2n1)c1cnc2ccccc2n1 [Compound 715],FOLD ACT. MS [6]: B (B (Fold Activation <250%))
< 5,B (B (Fold Activation <250%)),COc1ccc(C(=O)Nc2ccc(-c3nc4ccccc4[nH]3)cc2)cc1OC [Compound 294],–
5 to 50,B (B (Fold Activation <250%)),O=c1[nH]c2ccc(S(=O)(=O)Nc3cccc(-c4nc5ccncc5s4)c3)cc2o1 [Compound 399],–
–,–,COc1cc(C(=O)Nc2cc(-c3nc4ncccc4o3)ccn2)ccc1CN1CCCC1 [Compound 572],FOLD ACT. MS [3]: B (B (Fold Activation <250%)); EC50 [4]: 51 to 100 µM
< 5,–,COc1ccc(C(=O)Nc2ccccc2-c2nc3ncccc3o2)cc1OC [Compound 96],FOLD ACT. MS [2]: B (B (Fold Activation <250%))
–,–,O=C(Nc1ccccc1-c1nc2cc(CN3CCNCC3)cnc2s1)c1ccc2ccccc2n1 [Compound 646],FOLD ACT. MS [3]: A (A (Fold activation >250%)); EC50 [4]: 5 to 50 µM
5 to 50,–,COc1cccc(OC)c1C(=O)Nc1cccc(-c2nc3ccccc3o2)c1 [Compound 119],FOLD ACT. MS [2]: B (B (Fold Activation <250%))
5 to 50,B (B (Fold Activation <250%)),COc1ccc(C(=O)Nc2ccccc2-c2nc3ccccc3n2C)cc1OC [Compound 314],–
< 5,–,O=C(Nc1ccccc1-c1cn2c(CN3CCSCC3)csc2n1)c1cnc2ccccc2n1 [Compound 742],FOLD ACT. MS [6]: B (B (Fold Activation <250%))
5 to 50,–,COc1ccc(S(=O)(=O)Nc2cccc(-c3nc4ncccc4o3)n2)cc1OC [Compound 60],–
< 5,B (B (Fold Activation <250%)),O=C(Nc1cccc(-c2nc3ccncc3s2)c1)c1ccccc1Oc1ccccc1 [Compound 245],–
5 to 50,–,CN(C)c1cccc(C(=O)Nc2ccc(-c3nc4cccnc4[nH]3)cc2)c1 [Compound 180],FOLD ACT. MS [2]: B (B (Fold Activation <250%))
5 to 50,A (A (Fold activation >250%)),COc1ccc(C(=O)Nc2ccccc2-c2cn3cc(CN4CCNCC4)sc3n2)cc1OC [Compound 270],–
5 to 50,B (B (Fold Activation <250%)),COc1ccc(C(=O)Nc2ccccc2-c2cccs2)c(OC)c1 [Compound 334],–
< 5,–,O=C(Nc1ccccc1-c1nc2cc(CN3CCOCC3)cnc2s1)c1ccc2ccccc2n1 [Compound 724],FOLD ACT. MS [6]: A (A (Fold activation >250%))
